Source: patent US5130474A, “Optically-active derivatives of (R) 5-pentylamino-5-oxopentanoic acid with antagonistic activity towards cholecystokin in and a method for their preparation” (Rotta Research Laboratorium SpA, priority 1987, dated 1992)
pIC50: −log10 of the molar value. Like-named read-outs stand apart in the source and are kept apart here.

Legend:
[1] = target: T1, cholecystokinin receptors of ox gallbladder membranes (Bos taurus, UniProt A6QLH2); assay: Inhibition of the binding of [125-I]-Bolton Hunter-CCK-8 to ox gallbladder membranes; details: pH 7.4, 2 h at 25° C., read-out: IC50, inhibition of the binding of (^125 I)-(B-H)-CCK-8
T1 construct: The ox gallbladder cell membranes were homogenised with Tris buffer (pH 7.4); from tissue; host or cells: ox gallbladder cell membranes
T1 sequence (A6QLH2 1-427): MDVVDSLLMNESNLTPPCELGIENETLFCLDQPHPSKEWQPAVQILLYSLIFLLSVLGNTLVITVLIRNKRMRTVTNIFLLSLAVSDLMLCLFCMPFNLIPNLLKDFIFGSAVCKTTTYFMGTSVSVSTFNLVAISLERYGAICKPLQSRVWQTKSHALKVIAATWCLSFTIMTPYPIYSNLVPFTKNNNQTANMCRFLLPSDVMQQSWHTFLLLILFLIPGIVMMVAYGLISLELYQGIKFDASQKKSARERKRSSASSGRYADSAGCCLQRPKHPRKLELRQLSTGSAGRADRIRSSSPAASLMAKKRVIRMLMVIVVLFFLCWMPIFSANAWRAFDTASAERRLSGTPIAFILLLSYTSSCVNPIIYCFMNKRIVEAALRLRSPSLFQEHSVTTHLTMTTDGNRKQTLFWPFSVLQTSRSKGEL
Procedure: The ox gallbladder cell membranes were homogenised with Tris buffer (pH 7.4) and the homogenate was centrifuged at 50,000 gravity for 10 minutes. The membranes were then incubated with a radioactive tracer and the compounds under study for 2 h at 25° C.
After the supernatant liquid had been discarded, the radioactivity associated with the pellet was determined with a liquid scintillator. The specific binding was determined as the difference between the binding in the absence and in the presence of 10^-6 M CCK-8.

[2] = test system: piloric contraction induced by CCK; assay: Antispastic activity on piloric contraction induced by CCK in rats; type: in vivo, rat; details: for ED50: ip, rat, 8 mcg/kg i.p. CCK, compound i.p. 15 minutes before, read-out: ID50, antispastic activity on piloric contraction induced by CCK
Procedure: A dose of 8 mcg/kg i.p. of CCK was used, which induces a sub-maximal contraction of the pilorus.
The antagonistic compounds were administered (i.p.) 15 minutes before the contractant. 10 minutes after the administration of the contractant, the animals were treated per os with 25 ml/kg of H2 O. 5 minutes after this administration, the animals were killed, their stomachs removed and the gastric content measured by removal with a syringe.
The % antispactic activity for each dose administered was calculated from the following formula: [formula] where V1 =the gastric-content volume of the group of animals treated with the drug plus the contractant
V2 =the gastric-content volume of the group of animals treated with the contractant only
V3 =the gastric-content volume of the control group of animals.
The compounds were tested at various doses so as to enable the calculation of the ID50 value, that is the dose (in mg/kg i.p.) which is able to inhibit the contractant effect of CCK by 50%.
The results obtained are given in Table 7, where the effects obtained are expressed as the ID50.

[3] = test system: experimental pancreatitis induced by taurocholate; assay: Pancreatitis induced by sodium taurocholate; type: in vivo, rats; details: for ED50: Rattus norvegicus, ip, 6 h
Procedure: The method described by Aho et al. (Scandinavian J. Gastroenterology 15 (1980), 411-16) was followed
Male rats weighing approximately 250 g were subjected to laparatomy and the pancreas exposed. 0.3 ml of a 6% solution of sodium taurocholate was injected directly into the pancreatic tissue.
The products under test were administered intraperitoneally (i.p.) 30 minutes before the operation and 3 hours after the operation. 6 hours after the laparotomy and after anesthesia with ether, blood was removed from the retro-orbital plexus, the animals were killed and the pancreas removed and weighed. The activity of the serum amylase was determined by the Ceska method (Clin. Chim. Acta 26 (1969), 437-444).
The compounds were tested at different doses so as to enable the calculation of the ID50 value, that is the dose (in mg/kg i.p.) which is able to inhibit the toxic effect of the sodium taurocholate by 50%, expressed both as a % inhibition of the increase in weight of the pancreas and as a % inhibition of the increase in serum amylase.

[4] = test system: gallbladder contraction induced by egg yolk; assay: Antispastic activity on the gallbladder in mice (gallbladder emptying induced by egg yolk); type: in vivo; details: for ED50: Mus musculus, ip, read-out: ID50, antispastic activity on gallbladder contraction induced by egg yolk
Procedure: The emptying of the gallbladder was induced by a single oral administration of 1 ml of a 30% suspension (weight/volume) of lyophilised egg yolk in a physiological solution.
Once it has been absorbed, the egg yolk, as stated above, induces the release of endogenous CCK.
The antagonist compounds were administered intraperitoneally (i.p.) 15 minutes before the contractant.
The % antispastic activity for each dose was calculated by the following formula: [formula] where P1 =average weight of the gallbladders of the group of animals treated with the drug plus the contractant
P2 =average weight of the gallbladders of the group of animals treated with contractant only
P3 =average weight of the gallbladders of the control group of animals.

[5] = 5 mg/kg i.p. (second dose of compound 8) + taurocholate
[6] = 5 mg/kg i.p. (third dose of compound 8) + taurocholate
[7] = 30 min before and 3 h after operation, read-out: ID50, inhibition of the increase in serum amylase
[8] = 30 min before and 3 h after operation, read-out: ID50, inhibition of the increase in weight of the pancreas
[9] = mice, i.p. 15 minutes before egg yolk

## CCCCCN(CCCCC)C(=O)[C@H](CCC(=O)O)NC(=O)c1ccc(Cl)c(Cl)c1 [Compound 14]
[1]
  pIC50: 6.35

## CCK-8: cold (unmarked) CCK [reference compound]
[1]
  pIC50: 9.70

## CCCCCN(CCCOC)C(=O)[C@@H](CCC(=O)O)NC(=O)c1ccc(Cl)c(Cl)c1 [Compound 11]
[1]
  pIC50: 7.52

## CCCCCN(CCOCC)C(=O)[C@@H](CCC(=O)O)NC(=O)c1ccc2ccccc2c1 [Compound 12]
[1]
  pIC50: 8.03

## CCCCCN(CCCCC)C(=O)[C@@H](CCC(=O)O)NC(=O)c1ccc(Cl)c(Cl)c1 [Compound 8]
[1]
  pIC50: 8.12
[2]; 0.03 mg/kg i.p.
  % inhibition of piloric contraction: 29.8%
[2]; 0.1 mg/kg i.p.
  % inhibition of piloric contraction: 48.0%
[2]; 0.3 mg/kg i.p.
  % inhibition of piloric contraction: 68.1%
[2]
  ED50: 0.11 mg/kg
[3]; 1 mg/kg i.p. + taurocholate
  % inhibition increase in amylase: 40.7%
  % inhibition of weight increase (pancreas): 35.3%
  % ratio pancreas weight / animal weight: 0.48%
  Amylase in the serum: 12.7 U/ml
[3]; [5]
  % inhibition increase in amylase: 76.5%
  % inhibition of weight increase (pancreas): 52.5%
  % ratio pancreas weight / animal weight: 0.45%
  Amylase in the serum: 9.8 U/ml
[3]; [6]
  % inhibition increase in amylase: 86.4%
  % inhibition of weight increase (pancreas): 82.3%
  % ratio pancreas weight / animal weight: 0.40%
  Amylase in the serum: 9.0 U/ml
[3]; [7]
  ED50: 1.2 mg/kg
[3]; [8]
  ED50: 1.8 mg/kg
[4]; 0.1 mg/kg i.p.
  % inhibition of the emptying of the gallbladder: 25.2%
[4]; 0.1 mg/kg i.p. as printed (third, highest dose of compound 8)
  % inhibition of the emptying of the gallbladder: 86.3%
[4]; 0.3 mg/kg i.p.
  % inhibition of the emptying of the gallbladder: 53.2%
[4]; [9]
  ED50: 0.25 mg/kg

## CCCCCN(CCCOC)C(=O)[C@@H](CCC(=O)O)NC(=O)c1ccc2ccccc2c1 [Compound 10]
[1]
  pIC50: 8.21

## COc1ccc(Cc2nccc3cc(OC)c(OC)cc23)cc1OC [PAPAVERINE, reference compound]
[4]; 25 mg/kg i.p.
  % inhibition of the emptying of the gallbladder: 0%
[4]; 50 mg/kg i.p.
  % inhibition of the emptying of the gallbladder: 0%
[4]; 75 mg/kg i.p.
  % inhibition of the emptying of the gallbladder: 26.1%
[4]; [9]
  ID50, antispastic activity on gallbladder contraction induced by egg yolk: INACTIVE
[4]; only at 75 mg/kg
  antispastic activity on the gallbladder, in words: slightly active

## CCCCCN(CCCCC)C(=O)[C@@H](CCC(=O)O)NC(=O)c1ccc(C)c(C)c1 [Compound 9]
[1]
  pIC50: 7.36

## CCCCCN(CCCCC)C(=O)[C@H](CCC(=O)O)NC(=O)c1ccc(C)c(C)c1 [Compound 15]
[1]
  pIC50: 5.66

## CCCCCN(CCCCC)C(=O)[C@@H](CCC(=O)O)NC(=O)c1ccc2ccccc2c1 [Compound 7]
[1]
  pIC50: 9.00
[2]; 0.01 mg/kg i.p.
  % inhibition of piloric contraction: 27.7%
[2]; 0.03 mg/kg i.p.
  % inhibition of piloric contraction: 48.8%
[2]; 0.1 mg/kg i.p.
  % inhibition of piloric contraction: 80.8%
[2]
  ED50: 0.03 mg/kg
[3]; 0.3 mg/kg i.p. + taurocholate
  % inhibition increase in amylase: 42.2%
  % inhibition of weight increase (pancreas): 36.4%
  % ratio pancreas weight / animal weight: 0.47%
  Amylase in the serum: 12.0 U/ml
[3]; 1 mg/kg i.p. + taurocholate
  % inhibition increase in amylase: 79.7%
  % inhibition of weight increase (pancreas): 54.5%
  % ratio pancreas weight / animal weight: 0.45%
  Amylase in the serum: 9.6 U/ml
[3]; 3 mg/kg i.p. + taurocholate
  % inhibition increase in amylase: 89.0%
  % inhibition of weight increase (pancreas): 90.8%
  % ratio pancreas weight / animal weight: 0.41%
  Amylase in the serum: 9.0 U/ml
[3]; both parameters, read-out: dose inhibiting the increase in weight of the pancreas and the increase in serum amylase by 50%
  ED50: ~0.5 mg/kg
[3]; [7]
  ED50: 0.4 mg/kg
[3]; [8]
  ED50: 0.6 mg/kg
[4]; 0.025 mg/kg i.p.
  % inhibition of the emptying of the gallbladder: 24.0%
[4]; 0.05 mg/kg i.p.
  % inhibition of the emptying of the gallbladder: 44.2%
[4]; [9]
  ED50: 0.05 mg/kg

## CCCCCN(CCCCC)C(=O)[C@H](CCC(=O)O)NC(=O)c1ccc2ccccc2c1 [Compound 13]
[1]
  pIC50: 7.21
[2]; 1 mg/kg i.p.
  % inhibition of piloric contraction: 17.7%
[2]; 3 mg/kg i.p.
  % inhibition of piloric contraction: 39.0%
[2]; 5 mg/kg i.p.
  % inhibition of piloric contraction: 54.2%
[2]
  ED50: 4.55 mg/kg
[2]; piloric contraction
  active dose, times higher than compound 7: approximately 150 times
[4]; 1 mg/kg i.p.
  % inhibition of the emptying of the gallbladder: 18.8%
[4]; 3 mg/kg i.p.
  % inhibition of the emptying of the gallbladder: 47.7%
[4]; 9 mg/kg i.p.
  % inhibition of the emptying of the gallbladder: 80.2%
[4]; [9]
  ED50: 3.2 mg/kg

## CCCCCN(CCCOC)C(=O)[C@H](CCC(=O)O)NC(=O)c1ccc2ccccc2c1 [Compound 16]
[1]
  pIC50: 6.25
